# Experimental data as given in ChEMBL document CHEMBL5058564, “EUbOPEN Chemogenomics Library 2 (Incucyte)” (2022).
# Tests used:
# Format in all cases: toxicity, cell-based
# HEK-293T = experiment: Incucyte cell viability with HEK293T; conditions: human, 10 µM, compound concentration 10 uM
# Fibroblast = experiment: Incucyte cell viability with human fibroblast; conditions: 10 µM, compound concentration 10 uM
# U2OS = experiment: Incucyte cell viability with U2OS; conditions: human, 10 µM, compound concentration 10 uM
# [1] = 0 h, replicate number 1, timepoint 0 hours
# [2] = 0 h, replicate number 2, timepoint 0 hours
# [3] = 6 h, replicate number 1, timepoint 6 hours
# [4] = 6 h, replicate number 2, timepoint 6 hours
# [5] = 12 h, replicate number 1, timepoint 12 hours
# [6] = 12 h, replicate number 2, timepoint 12 hours
# [7] = 18 h, replicate number 1, timepoint 18 hours
# [8] = 18 h, replicate number 2, timepoint 18 hours
# [9] = 24 h, replicate number 1, timepoint 24 hours
# [10] = 24 h, replicate number 2, timepoint 24 hours
# Note: unitless GR value; below 1 slowed growth and below 0 cell loss.
Compound,Growth Rate (HEK-293T; [1]),Growth Rate (HEK-293T; [2]),Growth Rate (HEK-293T; [3]),Growth Rate (HEK-293T; [5]),Growth Rate (HEK-293T; [8]),Growth Rate (Fibroblast; [2]),Growth Rate (Fibroblast; [3]),Growth Rate (Fibroblast; [4]),Growth Rate (Fibroblast; [5]),Growth Rate (Fibroblast; [6]),Growth Rate (Fibroblast; [7]),Growth Rate (Fibroblast; [8]),Growth Rate (Fibroblast; [9]),Growth Rate (Fibroblast; [10]),Growth Rate (U2OS; [7]),Growth Rate (U2OS; [8]),Growth Rate (U2OS; [9]),Growth Rate (U2OS; [10]),Growth Rate (U2OS; [1]),Growth Rate (U2OS; [3]),further results
CC(C)(C)c1ccc(CSc2cnn(C(C)(C)C)c(=O)c2Cl)cc1 [PYRIDABEN],0.63,0.94,-0.14,0.01,0.2,-0.26,-0.33,0.56,-0.26,0.81,-0.13,0.71,-0.12,0.08,0.62,0.92,0.86,0.96,,,Growth Rate (HEK-293T; [4]): -0.1; Growth Rate (HEK-293T; [6]): -0.01; Growth Rate (HEK-293T; [7]): 0.13; Growth Rate (HEK-293T; [9]): 0.1; Growth Rate (HEK-293T; [10]): 0.22; Growth Rate (U2OS; [2]): -1
COc1ccc(CN(CCN(C)C)c2ccccn2)cc1 [PYRILAMINE],,,,0.94,,0.99,0.36,0.26,,,,,,,,0.91,1,0.96,0.52,,Growth Rate (HEK-293T; [4]): 0.74; Growth Rate (HEK-293T; [6]): 0.74
CCCN1CCC[C@@H]2Cc3n[nH]cc3C[C@H]21.Cl [QUINPIROLE HYDROCHLORIDE],,0.26,0.41,,,0.29,0.59,,0.29,,0.54,,,,0.9,0.96,0.88,0.96,,-0.04,Growth Rate (Fibroblast; [1]): -0.18; Growth Rate (U2OS; [4]): 0.9; Growth Rate (U2OS; [6]): 0.66
CC(C)(C)c1cc(NC(=O)Nc2ccc(-c3cn4c(n3)sc3cc(OCCN5CCOCC5)ccc34)cc2)no1 [QUIZARTINIB],0.2,,-0.18,,0.17,0.43,,,,1,,0.89,,0.78,,0.52,,0.65,,0.41,Growth Rate (HEK-293T; [6]): -0.06; Growth Rate (HEK-293T; [10]): 0.22; Growth Rate (Fibroblast; [1]): -0.84; Growth Rate (U2OS; [6]): 0.51
O=C(O)CCn1c2c(c3ccccc31)C[C@H](NS(=O)(=O)c1ccc(F)cc1)CC2 [RAMATROBAN],,,,0.91,0.76,0.9,,0.99,,,,,,,0.98,0.9,0.97,,,,Growth Rate (HEK-293T; [4]): 0.71; Growth Rate (HEK-293T; [6]): 0.72; Growth Rate (Fibroblast; [1]): -0.24; Growth Rate (U2OS; [2]): -1; Growth Rate (U2OS; [5]): 0.75; Growth Rate (U2OS; [6]): 0.9
CCC(=O)NCC[C@@H]1CCc2ccc3c(c21)CCO3 [RAMELTEON],0.12,-0.36,0.99,,,0.17,0.76,0.51,0.96,0.73,0.96,0.83,0.77,0.89,0.88,,0.82,,-0.01,0.45,Growth Rate (HEK-293T; [9]): 0.86; Growth Rate (Fibroblast; [1]): 0.51; Growth Rate (U2OS; [5]): 0.54
COC(=O)[C@H]1[C@H]2C[C@H]3c4[nH]c5ccccc5c4CCN3C[C@H]2CC[C@@H]1O.Cl [RAUWOLSCINE HYDROCHLORIDE],0.51,0.67,0.76,0.95,,-0.08,0.83,,0.59,,,,,,0.79,0.88,,0.98,-0.57,0.53,Growth Rate (U2OS; [5]): 0.61; Growth Rate (U2OS; [6]): 0.89
CC(C)Cc1ccc([C@@H](C)C(=O)NS(C)(=O)=O)cc1 [REPARIXIN],,0.48,,0.78,0.83,,0.51,-0.08,0.63,0.66,0.6,0.65,0.06,0.95,,0.86,,0.93,-0.7,,Growth Rate (HEK-293T; [7]): 0.7; Growth Rate (HEK-293T; [9]): 0.82; Growth Rate (U2OS; [2]): -1; Growth Rate (U2OS; [4]): 0.83; Growth Rate (U2OS; [6]): 0.88
CC(C)c1cc(Oc2c(Cl)cc(-n3nc(C#N)c(=O)[nH]c3=O)cc2Cl)n[nH]c1=O [RESMETIROM],0.01,0.23,0.99,0.77,0.96,0.82,,0.58,,0.74,,0.87,,0.85,0.83,0.79,0.99,,0.87,0.7,Growth Rate (HEK-293T; [10]): 0.86; Growth Rate (Fibroblast; [1]): -0.06; Growth Rate (U2OS; [2]): 0.06; Growth Rate (U2OS; [4]): 0.54; Growth Rate (U2OS; [6]): 0.75
CN(CCN1CCC(OC(=O)Nc2ccccc2-c2ccccc2)CC1)C(=O)c1ccc(CN2CCC(C(N)=O)CC2)cc1 [REVEFENACIN],,,0.97,0.95,0.74,0.62,,0.71,0.73,0.65,0.65,0.9,0.56,0.97,,,,,0.88,,Growth Rate (HEK-293T; [6]): 0.59; Growth Rate (HEK-293T; [7]): 0.98; Growth Rate (HEK-293T; [9]): 0.9; Growth Rate (HEK-293T; [10]): 0.78; Growth Rate (U2OS; [2]): 0.11
N[C@@H]1c2cccnc2[C@H](OC(=O)N2CCC(n3c(=O)[nH]c4ncccc43)CC2)CC[C@H]1c1cccc(F)c1F [RIMEGEPANT],,0.87,0.99,,,,-0.21,0.05,-0.05,-0.02,0.2,0.18,0.1,-0.18,,0.96,,0.87,-0.42,,Growth Rate (HEK-293T; [4]): 0.67; Growth Rate (HEK-293T; [9]): 0.89; Growth Rate (Fibroblast; [1]): 0.86; Growth Rate (U2OS; [4]): 0.88
Cc1c(C(=O)NN2CCCCC2)nn(-c2ccc(Cl)cc2Cl)c1-c1ccc(Cl)cc1 [RIMONABANT],0.19,-0.01,,,,0.97,-0.42,-0.46,0.04,0,-0.03,0.53,0.03,0.42,,0.98,0.8,,0.12,,Growth Rate (U2OS; [2]): -1
C[C@@H](OC[C@@]1(c2ccccc2)CC[C@]2(CCC(=O)N2)CN1)c1cc(C(F)(F)F)cc(C(F)(F)F)c1 [ROLAPITANT],,,,0.83,0.81,0.28,-0.04,,0.02,0.68,0.57,,0.27,,0.79,0.63,0.84,0.64,,-0.32,Growth Rate (HEK-293T; [4]): 0.73; Growth Rate (HEK-293T; [6]): 0.57; Growth Rate (HEK-293T; [7]): 0.88; Growth Rate (HEK-293T; [9]): 0.89; Growth Rate (HEK-293T; [10]): 1; Growth Rate (U2OS; [4]): 0.54; Growth Rate (U2OS; [6]): 0.49
CCCN(CCC)CCc1cccc2c1CC(=O)N2.Cl [ROPINIROLE HYDROCHLORIDE],0.6,0.1,0.94,,,-0.1,,,0.31,,0.67,,0.64,,0.76,,,,0.4,0.57,Growth Rate (Fibroblast; [1]): 0.73; Growth Rate (U2OS; [5]): 0.77
CCCN(CCc1cccs1)[C@H]1CCc2c(O)cccc2C1 [ROTIGOTINE],0.77,-1,,,,-0.39,0.1,,0.84,,,,,,,,,,0.77,0.95,Growth Rate (HEK-293T; [9]): 0.99; Growth Rate (U2OS; [5]): 0.96
